Laboratory results: patent US11208559B2, “Modified indigo compounds and methods of dyeing a substrate using a modified indigo compound” (VF Jeanswear LP, priority 2016, dated 2021)

Tests used:
Assay type in all cases: physicochemical
[1] = Stability of Compound 4 in water, UV-Vis spectra; conditions: 3 wt. % aqueous solution, room temperature, up to 2 days
Description: The stability of compound 4 was determined. An aqueous solution of 3 wt. % of Compound 4 was prepared at stored at room temperature for 2 days. The UV-Vis spectra for each solution were obtained prior to storage, 3 hours, 1 day, and 2 days. The solution was then diluted by a factor of 300 and the UV-Vis spectrum of FIG. 15 obtained.

[2] = Storage stability of aqueous dye solution at room temperature, UV-Vis spectra; conditions: for compound converted to indigo: room temperature, 5 day period
Description: All UV-Vis spectra were obtained using a Varian Cary 6000i UV-Vis spectrophotometer.
The stability of Compound 8 was measured by diluting samples of the compound in water to provide 0.01 and 3% wt. % solutions. The solutions were then stored at room temperature for 5 days. The UV-Vis spectra of the solution after 1, 2, and 5 days were obtained. FIGS. 3 and 11A are the UV-Vis spectra which show the robustness of the dye compound after at least 2 days of storage at room temperature at both concentrations.
The longer term stability of Compound 8 was measured by diluting a sample of the compound in water to provide a 0.01 wt. % solution containing 0.1M NaCl (aq). The solution was then stored at room temperature for 5 days. The UV-Vis spectra of the solution were obtained daily over the 5 days.
The stability of Compound 8 was measured by preparing a 0.01 wt. % aqueous solution of compound 8 in water. The solution was then stored at room temperature for 2 days. The UV-Vis spectra of the solution after 1 and 2 days were obtained. FIG. 11B are the UV-Vis spectra which show the robustness of the dye compound after at least 2 days of storage at room temperature at both concentrations.

[3] = Insoluble solids filtered from stored dye solution with sodium sulfate (Test 4); conditions: 2 wt. % aqueous solution, 0.45 micron filter
Description: Aqueous solutions of 2 wt. % of Compound 8 were prepared with varying concentrations of sodium sulfate and then filtered through a 0.45 micron PVDF syringe filter after one day of room temperature storage. The filters were then dried at 120° C., cooled to room temperature, and weighed to quantify the amount of insoluble solids that had precipitated out of solution during storage.
In a control experiment, the weight change (−0.35%) was determined for a syringe filter that was flushed with 10 mL distilled water and then dried at 120° C.

[4] = Air stability of aqueous solution, UV-Vis spectra
Description: The air stability of Compound 8 was measured by diluting of the compound in water to provide a 0.01 wt. % solution. […] The solid line represents the stability of the Compound 8 aqueous solution under atmospheric conditions. The dashed line represents the stability of the Compound 8 aqueous solution after treatment with 15 minutes of nitrogen purging of the solution, followed by storage for 1 day in a vial equipped with a rubber septum. See, FIG. 10. The UV-Vis spectra of the solutions were obtained.

[5] = Relative kinetics of degradation (hydrolysis) monitored by UV-Vis spectrophotometry; conditions: 0.01 wt. % with 0.1M NaCl aqueous versus 0.01 wt. % without salt, room temperature
Description: In this example, the relative kinetics of degradation for two conditions for Compound 8 were measured. One solution contained 0.01 wt. % of Compound 8 and 0.1M NaCl aqueous and the other solution contained 0.01 wt. % of Compound 8. Both solutions were stored at room temperature and the hydrolysis monitored using UV-Vis spectrophotometry. See, FIG. 13.

[6] = Dilution of stock solution into distilled water, comparison with leuco-indigo; conditions: for time to turn blue / convert back to indigo after dilution: 1 mL stock solution in 20 mL distilled water, no excess reducing agent
Description: The stability and visual observations comparing what occurs when an aqueous stock solution of leuco-indigo and an aqueous solution Compound 8 were obtained. The leuco-indigo stock solution was prepared using 0.2 wt. % indigo powder, 0.5 wt. % NaOH, and 0.5 wt. % sodium hydrosulfite, the solution was heated to 50-60° C. for 30 minutes, and the solution was then allowed to cool to room temperature. An aqueous solution containing 3 wt. % of Compound 8 was prepared. 1 mL of each solution was then added to 20 mL of distilled water and physical observations were made. See, Table 3.

[7] = Solubility studies in water (centrifugation, weighing of undissolved solids); conditions: for Highest Solubility Measured (wt. %): in water, corrected for insoluble solids, true maximum solubility not determined; for average percent solids removed: undissolved solids removed during centrifugation of aqueous solutions
Description: The solutions were prepared by adding a known amount of dye to a known amount of water and agitating the solution. Separately, each solution of known concentration was centrifuged for 30 minutes to separate out any undissolved solids. The supernatant was decanted and the remaining undissolved solids were dried at 50° C. and later weighed to determine wt. % of soluble portion.
The actual concentration was determined by centrifuging the dye solutions extensively to remove any undissolved solids. The undissolved solids were then isolated, dried, and weighed.
Note that in all instances, a true maximum solubility in water has not been determined due to the very high solubility of the compounds in water. For all compounds, the maximum solubility was corrected for the amount of insoluble solids that were isolated during centrifugation.

[8] = Heat treatment of dyed cotton fabric, conversion to indigo; conditions: 4 minutes
Description: Prepared for dye (PFD) 3×1 twill cotton fabric dyed with Compound 8 prepared by dipping in an aqueous solution containing 3 wt. % of Compound 8, padding, and drying at 50° C. The samples were then placed separately into a lab-scale tenter frame for heat treatment. See, FIG. 20 showing the dyed fabric exposed to 100° C. (left), 150° C. (middle), and 180° C. (right).

[9] = Atmospheric steam treatment of dyed cotton skein, conversion to indigo; conditions: steam under atmospheric conditions for 30 minutes
Description: Cotton skeins were pretreated with 1 M NaOH (aq), dyed with a 3 wt. % aqueous solution of Compound 8, hydrolyzed using 1 M NaOH (aq), and then rinsed with water. One skein was dried at 50° C. and remains purple in color. See, the top skein in FIG. 21. The other skein was dried at 50° C. and then exposed to steam under atmospheric conditions for 30 minutes, resulting in the attainment of a blue hue. See, the botton skein in FIG. 21.

[10] = Hydrolysis to indigo under hydrolyzing conditions
[11] = 1 mL stock solution added to 20 mL distilled water

## C[n+]1cccc(C(=O)N2/C(=C3\C(=O)c4ccccc4N3C(=O)c3ccc[n+](C)c3)C(=O)c3ccccc32)c1 [Compound 4]
[1]
  stability in water compared to Compound 8: relative instability

## C[n+]1ccc(C(=O)N2/C(=C3\C(=O)c4ccccc4N3C(=O)c3cc[n+](C)cc3)C(=O)c3ccccc32)cc1 [Compound 8]
[2]; 0.01 and 3 wt. % solutions in water, FIGS. 3 and 11A
  robustness of the dye compound on storage at room temperature: at least 2 days
[2]; 0.01 wt. % solution containing 0.1M NaCl (aq)
  compound converted to indigo: 9%
[2]; 0.01 wt. % solution in water
  compound converted to indigo: 41%
[2]; Example 27, 0.01 wt. % aqueous solution, FIG. 11B
  robustness of the dye compound on storage at room temperature: at least 2 days
[3]; 0.1M Na2SO4, one day at room temperature
  Fraction of dye compound removed during filtration (%): 2.85%
[3]; 0.5M Na2SO4, one day at room temperature
  Fraction of dye compound removed during filtration (%): −0.4%
[3]; 1M Na2SO4, one day at room temperature
  Fraction of dye compound removed during filtration (%): 0.1%
[4]; 0.01 wt. % solution in water, 1 day at 8° C.
  UV-Vis spectra after one day, stored under nitrogen versus atmospheric conditions: identical
[4]; aqueous solution, storage at room temperature for 2 days
  air stability in solution: air stable
[5]
  hydrolysis rate with salt relative to without salt (factor slower): six
[6]; [11]
  Observation on dilution (color): Dark purple solutions became lighter
  UV-Vis spectra of diluted solutions: superimposable - consistent with no
[7]
  Highest Solubility Measured (wt. %): 40 wt. %
  average percent solids removed: about 2%
[8]; 100° C.
  conversion to indigo by heat: no conversion
[8]; 150° C.
  conversion to indigo by heat: slower conversion
[8]; 180° C.
  conversion to indigo by heat: relatively rapid conversion
[9]
  conversion to indigo by steam: conversion to indigo

## O=C1/C(=C2/C(=O)c3ccccc3N2C(=O)c2ccncc2)N(C(=O)c2ccncc2)c2ccccc21 [Compound 35]
[7]
  Highest Solubility Measured (wt. %): 1.7 wt. %
  average percent solids removed: about 26%

## O=C1/C(=C2/C(=O)c3ccccc3N2C(=O)c2ccncc2)N(C(=O)c2ccncc2)c2ccccc21 [Compound 37]
[7]
  Highest Solubility Measured (wt. %): 1.6 wt. %
  average percent solids removed: about 26%
[10]
  hydrolysis to indigo: hydrolyzes to indigo

## Oc1c(-c2[nH]c3ccccc3c2O)[nH]c2ccccc12 [Leuco-indigo, leuco-indigo]
[6]; [11]
  Observation on dilution (color): blue-green solution immediately
[6]
  time to turn blue / convert back to indigo after dilution: solution turned blue under 10 seconds
[6]; listed as leuco-indigo
  time to turn blue / convert back to indigo after dilution: less than 10 seconds
